Reference: ChEMBL document CHEMBL1153245, “A profile of the in vitro anti-tumor activity of imidazolium-based ionic liquids” (2010)

Experiments:
Type in all cases: functional
A498 = assay: Anticancer activity against human A498 cells assessed cell growth at 10 uM after 48 hrs by sulforhodamine B assay relative to control
MOLT-4 = assay: Anticancer activity against human MOLT4 cells assessed cell growth at 10 uM after 48 hrs by sulforhodamine B assay relative to control
UACC-62 = assay: Anticancer activity against human UACC62 cells assessed cell growth at 10 uM after 48 hrs by sulforhodamine B assay relative to control
COLO 205 = assay: Anticancer activity against human COLO205 cells assessed cell growth at 10 uM after 48 hrs by sulforhodamine B assay relative to control
A549 = assay: Anticancer activity against human A549 cells assessed cell growth at 10 uM after 48 hrs by sulforhodamine B assay relative to control
OVCAR-3 = assay: Anticancer activity against human OVCAR-3 cells assessed cell growth at 10 uM after 48 hrs by sulforhodamine B assay relative to control
HT-29 = assay: Anticancer activity against human HT-29 cells assessed cell growth at 10 uM after 48 hrs by sulforhodamine B assay relative to control
NCI/ADR-RES = assay: Anticancer activity against human NCI/ADR-RES cells assessed cell growth at 10 uM after 48 hrs by sulforhodamine B assay relative to control
M14 = assay: Anticancer activity against human M14 cells assessed cell growth at 10 uM after 48 hrs by sulforhodamine B assay relative to control
NCI-H226 = assay: Anticancer activity against human NCI-H226 cells assessed cell growth at 10 uM after 48 hrs by sulforhodamine B assay relative to control
SR = assay: Anticancer activity against human SR cells assessed cell growth at 10 uM after 48 hrs by sulforhodamine B assay relative to control
K562 = assay: Anticancer activity against human K562 cells assessed cell growth at 10 uM after 48 hrs by sulforhodamine B assay relative to control
SK-MEL-5 = assay: Anticancer activity against human SK-MEL-5 cells assessed cell growth at 10 uM after 48 hrs by sulforhodamine B assay relative to control
HCC 2998 = assay: Anticancer activity against human HCC2998 cells assessed cell growth at 10 uM after 48 hrs by sulforhodamine B assay relative to control

Structure (SMILES)	Activity (A498) [%]	Activity (MOLT-4) [%]	Activity (UACC-62) [%]	Activity (COLO 205) [%]	Activity (A549) [%]	Activity (OVCAR-3) [%]	Activity (HT-29) [%]	Activity (NCI/ADR-RES) [%]	Activity (M14) [%]	Activity (NCI-H226) [%]	Activity (SR) [%]	Activity (K562) [%]	Activity (SK-MEL-5) [%]	Activity (HCC 2998) [%]
Cn1cc[n+](Cc2ccccc2)c1.F[P-](F)(F)(F)(F)F	112.56	81.59	101.92	123.33	105.33	110.15	96.77	90.03	114.25	99.73	103.39	70.16	104.4	–
CCCCCCCC[n+]1ccn(C)c1.[Cl-]	101.4	81.09	81.12	97.68	85.73	81.96	69.97	95.09	87.47	75.79	88.57	63.96	86.81	77.19
CCCCCC[n+]1ccn(C)c1.O=S(=O)([N-]S(=O)(=O)C(F)(F)F)C(F)(F)F	84.14	100.94	92.58	100.66	78.86	99.74	88.19	99.76	100.39	87.92	126.57	101.77	78.78	90.7
CCCCCC[n+]1ccn(C)c1.FC(F)(F)C(F)(F)[P-](F)(F)(F)(C(F)(F)C(F)(F)F)C(F)(F)C(F)(F)F	75.58	81.53	68.28	97.72	56.87	94.84	66.89	54.24	88.81	57.04	77.17	68.14	51.37	76.85
Cn1cc[n+](CCO)c1.O=S(=O)([N-]S(=O)(=O)C(F)(F)F)C(F)(F)F	79.55	49.74	100.11	132.21	99.55	120.42	112.28	92.39	102.65	101.7	119.61	80.37	100.98	94.14
